Data set [1] has as its target KATP channel (Rattus norvegicus, UniProt Q09429). Briefly: CEREP KATP channel (antagonist radioligand). The format is binding. To be noted: BT13 1 μM; Cat. No. 0165; average of duplicate; read-out: Percentage of inhibition/potentiation from control.
Data set [2] concerns rats with spinal nerve ligation (L5/L6). The data set can be described thus: Spinal nerve ligation (Chung's) model of experimental neuropathy, von Frey test. To be noted: for increase of ipsilateral paw withdrawal threshold (PWT): von Frey, day 12 post-surgery.
Data set [3] concerns the target T1, Protein Serine/Threonine Phosphatase, PP2A (Homo sapiens, UniProt P67775).
T1 construct: purchased CEREP (contract assay) 3953
The data set can be described thus: CEREP Protein Serine/Threonine Phosphatase, PP2A. The format is biochemical. To be noted: BT13 1 μM; Cat. No. 3953; average of duplicate; read-out: Percentage of inhibition/potentiation from control.

The nature of data set [4]: Plasma stability, rat plasma. In kind it is in vitro ADME. Conditions: read-out: Plasma stability (% remaining after 1 h).
Data set [5] is described as follows: Solubility in the binding buffer. The format is physicochemical. To be noted: concentrations above 50 μM could not be tested.
Data set [6] deals with T2, monoamine oxidase A (MAO-A) (Rattus norvegicus, UniProt P21396).
T2 construct: purchased CEREP (contract assay) 0443
Briefly: CEREP MAO-A (antagonist radioligand). In kind it is binding. Conditions: BT13 1 μM; Cat. No. 0443; average of duplicate; read-out: Percentage of inhibition/potentiation from control.

The target in data set [7] is T3, TrkB (Rattus norvegicus, UniProt Q63604).
T3 construct: expressed in transfected cells; host or cells: MG87 murine fibroblasts (MG87TrkB)
The data set can be described thus: Luciferase reporter-gene assay, TrkB reporter cells. In kind it is cell-based. Conditions: TrkB reporter cell line. Background: Reporter assays use an easily measured gene product as a stand-in for the process of interest.

In data set [8] the target is neurokinin receptor NK3 (Homo sapiens, UniProt P29371). Briefly: CEREP NK3 (h) (antagonist radioligand). The format is binding. To be noted: read-out: Percentage of inhibition/potentiation from control.
Data set [9] relates to healthy rats. The data set can be described thus: Acute nociception and motor coordination in healthy animals. The format is in vivo, rat. Conditions: BT13 25 mg/kg s.c.
In data set [10] the target is T4, Protein Tyrosine Phosphatase, PTPRC (CD45) (Homo sapiens, UniProt P08575).
T4 construct: purchased CEREP (contract screening, standard company protocols) 3956
The data set can be described thus: CEREP Protein Tyrosine Phosphatase, PTPRC (CD45). Conditions: BT13 1 μM; Cat. No. 3956; average of duplicate; read-out: Percentage of inhibition/potentiation from control. The format is biochemical.

Data set [11] has as its target opioid receptor delta (DOP) (Homo sapiens, UniProt P41143). Briefly: CEREP Delta (DOP) (h) (agonist radioligand). Conditions: BT13 1 μM; Cat. No. 0114; average of duplicate; read-out: Percentage of inhibition/potentiation from control. The format is binding.
Data set [12] has as its target cannabinoid receptor CB1 (Homo sapiens, UniProt P21554). Briefly: CEREP CB1 (h) (agonist radioligand). The format is binding. Conditions: BT13 1 μM; Cat. No. 0036; average of duplicate; read-out: Percentage of inhibition/potentiation from control.
For data set [13], the target named is norepinephrine transporter (Homo sapiens, UniProt P23975). Briefly: biochemical. To be noted: read-out: Percentage of inhibition/potentiation from control.
Data set [14] deals with Akt and Erk phosphorylation in MG87TrkB. The data set can be described thus: Erk1/2 and Akt phosphorylation assay in MG87TrkB cells. In kind it is cell-based, murine. Conditions: BT13 10–100 μM, BDNF positive control. The protocol: MG87RET, MG87TrkA, or MG87TrkB were plated on 35 mm tissue culture dishes 1–2 days before the experiment to achieve 90–95% of confluency of the cells at the day of stimulation with tested substances. If necessary, cells were transfected with 4 μg/well of GFRα1-, GFRα3-, or green fluorescent protein (GFP)-expressing plasmid using Lipofectamine 2000 (Invitrogen) for DNA delivery as described by manufacturer. Before the experiment cells were starved in serum-free DMEM containing 15 mM HEPES, pH 7.2 and 1% DMSO for 4 h and stimulated with BT13 or neurotrophic factors. Then cells were washed once with ice-cold PBS containing 1 mM Na3VO4 and 1 mM NaF and lysed on ice in 1 ml per well of RIPA-modified buffer (50 mM Tris-HCl, pH 7.4, 150 mM NaCl, 1 mM EDTA, 1% NP-40, 1% TX-100, 10% glycerol, EDTA-free protease inhibitor cocktail (Roche), 1 mM Na3VO4, 2.5 mg/ml of sodium deoxycholate, 1 mM NaF). Plates were incubated at +4°C on the horizontal shaker for 30 min with vigorous shaking. Afterwards, 80–100 μl aliquot was taken from each well to prepare whole cell lysates. This aliquot was mixed with equal volume of 2x Laemmli loading buffer (4% SDS, 20% glycerol, 10% 2-mercaptoethanol, 0.004% bromphenol blue, 0.125 M Tris HCl, pH 6.8) and boiled for 10 min at 100°C. Remaining cell lysates were used for immunoprecipitation of RET or Trk receptors. […]

These results are taken from PMC5478727, “A Novel Small Molecule GDNF Receptor RET Agonist, BT13, Promotes Neurite Growth from Sensory Neurons in Vitro and Attenuates Experimental Neuropathy in the Rat” (Frontiers in Pharmacology, 2017).

neurokinin receptor NK3, sequence (P29371 whole entry): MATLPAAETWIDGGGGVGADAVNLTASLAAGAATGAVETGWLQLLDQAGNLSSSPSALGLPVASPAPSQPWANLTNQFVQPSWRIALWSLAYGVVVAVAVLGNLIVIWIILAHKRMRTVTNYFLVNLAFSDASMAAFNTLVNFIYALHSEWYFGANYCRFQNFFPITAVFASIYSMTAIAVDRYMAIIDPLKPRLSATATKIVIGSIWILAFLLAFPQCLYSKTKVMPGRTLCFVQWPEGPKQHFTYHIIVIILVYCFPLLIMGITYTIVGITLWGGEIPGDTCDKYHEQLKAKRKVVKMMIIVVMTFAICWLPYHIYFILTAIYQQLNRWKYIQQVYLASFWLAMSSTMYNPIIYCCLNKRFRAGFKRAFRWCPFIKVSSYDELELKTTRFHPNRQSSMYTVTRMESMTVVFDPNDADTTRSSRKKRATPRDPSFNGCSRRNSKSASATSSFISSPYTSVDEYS
cannabinoid receptor CB1, sequence (P21554 whole entry): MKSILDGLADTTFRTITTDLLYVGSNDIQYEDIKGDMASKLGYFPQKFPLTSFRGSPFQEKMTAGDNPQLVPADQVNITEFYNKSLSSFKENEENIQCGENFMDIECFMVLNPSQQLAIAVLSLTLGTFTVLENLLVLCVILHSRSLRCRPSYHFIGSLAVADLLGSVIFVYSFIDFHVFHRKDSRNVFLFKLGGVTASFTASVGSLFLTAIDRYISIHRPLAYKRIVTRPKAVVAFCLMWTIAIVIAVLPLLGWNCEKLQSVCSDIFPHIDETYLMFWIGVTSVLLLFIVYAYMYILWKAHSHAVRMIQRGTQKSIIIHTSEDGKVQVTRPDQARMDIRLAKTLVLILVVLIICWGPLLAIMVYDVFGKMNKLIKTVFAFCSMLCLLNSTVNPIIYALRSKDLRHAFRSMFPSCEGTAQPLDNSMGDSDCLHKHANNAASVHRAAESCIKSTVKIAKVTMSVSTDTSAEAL
T4 sequence (P08575 26-1306): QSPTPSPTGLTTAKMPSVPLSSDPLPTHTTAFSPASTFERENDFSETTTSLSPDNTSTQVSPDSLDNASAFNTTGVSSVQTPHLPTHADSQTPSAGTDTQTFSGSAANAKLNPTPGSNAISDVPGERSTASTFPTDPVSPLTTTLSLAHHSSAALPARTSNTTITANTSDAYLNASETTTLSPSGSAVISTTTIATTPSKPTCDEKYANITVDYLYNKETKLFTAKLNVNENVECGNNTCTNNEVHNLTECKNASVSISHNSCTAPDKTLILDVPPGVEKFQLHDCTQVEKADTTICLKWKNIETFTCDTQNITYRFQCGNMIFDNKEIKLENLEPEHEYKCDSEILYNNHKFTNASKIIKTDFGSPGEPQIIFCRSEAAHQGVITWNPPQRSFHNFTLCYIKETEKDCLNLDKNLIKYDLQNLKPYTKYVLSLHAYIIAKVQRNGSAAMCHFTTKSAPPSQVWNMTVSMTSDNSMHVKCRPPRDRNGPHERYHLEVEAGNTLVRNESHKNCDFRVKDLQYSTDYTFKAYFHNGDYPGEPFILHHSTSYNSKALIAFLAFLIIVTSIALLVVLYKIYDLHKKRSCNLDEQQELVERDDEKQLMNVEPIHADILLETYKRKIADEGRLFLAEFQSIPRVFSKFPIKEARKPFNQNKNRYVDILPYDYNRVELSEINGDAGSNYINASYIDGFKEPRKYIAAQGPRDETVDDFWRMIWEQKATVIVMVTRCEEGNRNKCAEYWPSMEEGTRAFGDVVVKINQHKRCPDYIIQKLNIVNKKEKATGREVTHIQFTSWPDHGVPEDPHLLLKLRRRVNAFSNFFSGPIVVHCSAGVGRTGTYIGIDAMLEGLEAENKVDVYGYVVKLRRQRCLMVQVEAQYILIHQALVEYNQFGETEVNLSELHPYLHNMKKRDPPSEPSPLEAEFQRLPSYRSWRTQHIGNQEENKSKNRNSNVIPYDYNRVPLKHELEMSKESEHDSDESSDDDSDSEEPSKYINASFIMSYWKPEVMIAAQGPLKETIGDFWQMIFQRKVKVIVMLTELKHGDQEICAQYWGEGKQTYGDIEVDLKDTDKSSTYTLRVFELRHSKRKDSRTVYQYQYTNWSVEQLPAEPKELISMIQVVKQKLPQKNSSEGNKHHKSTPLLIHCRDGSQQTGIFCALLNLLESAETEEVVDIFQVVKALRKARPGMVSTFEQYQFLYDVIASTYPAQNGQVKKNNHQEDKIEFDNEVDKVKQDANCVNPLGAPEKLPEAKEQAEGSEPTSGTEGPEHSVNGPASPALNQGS
KATP channel, sequence (Q09429 whole entry): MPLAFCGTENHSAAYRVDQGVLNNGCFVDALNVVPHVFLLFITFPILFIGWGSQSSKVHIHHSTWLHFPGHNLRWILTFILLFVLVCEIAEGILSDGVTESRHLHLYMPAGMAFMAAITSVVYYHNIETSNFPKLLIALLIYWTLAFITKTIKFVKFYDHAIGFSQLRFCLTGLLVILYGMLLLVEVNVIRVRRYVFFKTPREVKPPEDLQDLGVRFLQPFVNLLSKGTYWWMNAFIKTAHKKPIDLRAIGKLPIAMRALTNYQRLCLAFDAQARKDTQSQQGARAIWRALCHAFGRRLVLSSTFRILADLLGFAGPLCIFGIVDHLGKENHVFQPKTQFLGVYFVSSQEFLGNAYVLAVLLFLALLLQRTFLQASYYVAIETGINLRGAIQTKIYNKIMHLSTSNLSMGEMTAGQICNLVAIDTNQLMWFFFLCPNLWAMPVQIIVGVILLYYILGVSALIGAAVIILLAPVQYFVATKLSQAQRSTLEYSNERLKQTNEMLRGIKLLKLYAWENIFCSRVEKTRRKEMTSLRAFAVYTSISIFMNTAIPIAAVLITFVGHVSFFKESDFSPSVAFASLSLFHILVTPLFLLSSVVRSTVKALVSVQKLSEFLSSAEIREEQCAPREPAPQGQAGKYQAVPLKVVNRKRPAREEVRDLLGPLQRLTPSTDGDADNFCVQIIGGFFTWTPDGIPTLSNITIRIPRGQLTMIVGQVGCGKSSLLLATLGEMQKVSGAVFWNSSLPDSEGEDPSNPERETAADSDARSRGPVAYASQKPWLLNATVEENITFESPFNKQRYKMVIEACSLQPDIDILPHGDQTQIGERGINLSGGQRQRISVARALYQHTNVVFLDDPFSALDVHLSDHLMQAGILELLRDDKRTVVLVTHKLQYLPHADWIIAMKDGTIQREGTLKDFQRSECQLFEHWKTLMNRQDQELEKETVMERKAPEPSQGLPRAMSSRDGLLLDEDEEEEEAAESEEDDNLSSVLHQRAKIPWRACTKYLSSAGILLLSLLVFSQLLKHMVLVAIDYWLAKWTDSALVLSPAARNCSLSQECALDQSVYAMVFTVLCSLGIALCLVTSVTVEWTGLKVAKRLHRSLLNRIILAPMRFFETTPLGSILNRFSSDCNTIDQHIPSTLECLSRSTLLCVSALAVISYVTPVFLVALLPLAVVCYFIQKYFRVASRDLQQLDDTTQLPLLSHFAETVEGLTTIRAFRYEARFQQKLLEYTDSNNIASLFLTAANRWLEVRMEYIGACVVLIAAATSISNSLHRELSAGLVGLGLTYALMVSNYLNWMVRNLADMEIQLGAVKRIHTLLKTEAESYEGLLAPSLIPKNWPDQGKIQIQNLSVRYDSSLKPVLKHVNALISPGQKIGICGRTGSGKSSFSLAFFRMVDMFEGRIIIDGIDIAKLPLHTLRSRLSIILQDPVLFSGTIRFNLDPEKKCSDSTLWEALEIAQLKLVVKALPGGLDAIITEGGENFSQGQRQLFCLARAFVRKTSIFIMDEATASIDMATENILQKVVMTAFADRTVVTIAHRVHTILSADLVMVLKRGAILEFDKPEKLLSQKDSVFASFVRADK
KATP channel, sequence (P70673 whole entry partner): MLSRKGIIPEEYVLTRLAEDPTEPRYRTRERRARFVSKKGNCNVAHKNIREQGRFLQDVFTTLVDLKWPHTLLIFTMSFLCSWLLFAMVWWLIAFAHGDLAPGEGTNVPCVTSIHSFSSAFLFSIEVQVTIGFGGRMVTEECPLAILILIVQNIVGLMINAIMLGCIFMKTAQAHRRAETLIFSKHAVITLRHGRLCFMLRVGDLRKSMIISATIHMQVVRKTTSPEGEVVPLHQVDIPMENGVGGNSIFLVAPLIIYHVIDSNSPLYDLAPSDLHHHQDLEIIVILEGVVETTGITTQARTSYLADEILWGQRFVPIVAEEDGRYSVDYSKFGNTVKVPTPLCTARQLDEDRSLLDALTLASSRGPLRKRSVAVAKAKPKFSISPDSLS
T1 sequence (P67775 whole entry): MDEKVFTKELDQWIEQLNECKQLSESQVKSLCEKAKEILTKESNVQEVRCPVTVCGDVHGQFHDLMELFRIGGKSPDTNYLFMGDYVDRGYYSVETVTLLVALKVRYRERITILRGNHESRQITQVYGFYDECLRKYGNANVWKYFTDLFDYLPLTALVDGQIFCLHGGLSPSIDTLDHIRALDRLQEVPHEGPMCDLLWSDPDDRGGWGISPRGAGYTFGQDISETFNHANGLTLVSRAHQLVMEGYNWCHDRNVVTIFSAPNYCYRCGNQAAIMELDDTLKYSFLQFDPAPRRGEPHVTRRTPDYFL
T2 sequence (P21396 whole entry): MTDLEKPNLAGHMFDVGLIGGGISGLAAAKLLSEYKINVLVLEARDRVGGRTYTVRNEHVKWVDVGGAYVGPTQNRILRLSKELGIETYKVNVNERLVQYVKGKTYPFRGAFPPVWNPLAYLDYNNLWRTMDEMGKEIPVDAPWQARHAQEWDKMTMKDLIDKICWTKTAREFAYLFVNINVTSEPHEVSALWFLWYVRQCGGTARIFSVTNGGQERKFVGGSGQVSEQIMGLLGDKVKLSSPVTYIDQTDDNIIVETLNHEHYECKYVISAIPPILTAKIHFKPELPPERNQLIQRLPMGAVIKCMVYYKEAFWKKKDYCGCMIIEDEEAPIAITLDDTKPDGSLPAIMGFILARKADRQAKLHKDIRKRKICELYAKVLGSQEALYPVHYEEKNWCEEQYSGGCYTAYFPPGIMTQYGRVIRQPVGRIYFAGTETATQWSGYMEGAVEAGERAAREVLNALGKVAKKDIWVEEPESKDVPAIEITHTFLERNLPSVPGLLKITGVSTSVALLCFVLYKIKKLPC

As for `CCN(CC)S(=O)(=O)c1ccc(OC)c(N2CCN(C(=O)c3ccc(F)cc3C(F)(F)F)CC2)c1` [BT13], the inhibition at 1 µM in data set [1] is 8%; in data set [3] it was 4%; in [6], 5%; in data set [8], 0%; in [10] it was -3%; in data set [11] it was 3%. In addition, the values for the inhibition at 1 µM in [12] and in data set [13] were 9% and -5%, respectively. Besides, the “increase of ipsilateral paw withdrawal threshold (PWT)” value in [2] (BT13 20 mg/kg s.c. on days 1, 3, 5, 8, 10, 12) worked out at 2.5 times; in [2] (BT13 25 mg/kg s.c. on days 1, 3, 5, 8, 10, 12), 2.9 times. Moreover, the “effect on contralateral PWTs” value in data set [2] (repeated post-surgical s.c. administration of BT13) is recorded as “did not influence”. In [4], the share remaining at 1 h is 108 ± 7.3%. Besides, in [5], the “solubility in the binding buffer” value was “poor solubility”. In addition, the “activation of luciferase reporter” value in data set [7] is “did not activate luciferase”. In data set [9], the “baseline sensitivity to mechanical stimuli (paw pressure test)” value is on record as “no significant effect”. Also, in [9], the “baseline sensitivity to thermal stimuli (acetone test)” value was “no significant effect”. Further, in [9], the “baseline sensitivity to thermal stimuli (hot plate)” value is given as “no significant effect”. Besides, in data set [9], the “baseline sensitivity to thermal stimuli (tail flick)” value is “no significant effect”. For the same compound, the “motor performance (rotarod test)” value in [9] is on record as “no significant effect”. Also, the “Akt and Erk phosphorylation” value in data set [14] is listed as “no Akt or Erk phosphorylation was observed”.
